Test results from BindingDB's records for patent WO2024074497 (Forx Therapeutics, 2024).

Biological target: T1, Poly(ADP-ribose) glycohydrolase [448-976,L473S,N479S,S802A,R811K,M841I,S858P,I916T,T924D,D927K,C963S,A967T] (UniProt Q86W56, A967T/C963S/D927K/I916T/L473S/M841I/N479S/R811K/S802A/S858P/T924D)
T1 construct: 448-976
Test: PARG enzymatic IC50 assay
Procedure: PARG enzyme as incubated with compound or vehicle (DMSO) for 15 minutes or 2 hours in a 384 well plate. After adding the PARG substrate ADP-ribose-pNP, the plate was read for absorbance intensity at 405 nm. The vehicle (DMSO) with high absorbance intensity represents no inhibition of enzymatic reaction while the low control (no enzyme) with low absorbance intensity represents full inhibition of enzymatic reaction.

T1 sequence (Q86W56 448-976 L473S/N479S/S802A/R811K/M841I/S858P/I916T/T924D/D927K/C963S/A967T): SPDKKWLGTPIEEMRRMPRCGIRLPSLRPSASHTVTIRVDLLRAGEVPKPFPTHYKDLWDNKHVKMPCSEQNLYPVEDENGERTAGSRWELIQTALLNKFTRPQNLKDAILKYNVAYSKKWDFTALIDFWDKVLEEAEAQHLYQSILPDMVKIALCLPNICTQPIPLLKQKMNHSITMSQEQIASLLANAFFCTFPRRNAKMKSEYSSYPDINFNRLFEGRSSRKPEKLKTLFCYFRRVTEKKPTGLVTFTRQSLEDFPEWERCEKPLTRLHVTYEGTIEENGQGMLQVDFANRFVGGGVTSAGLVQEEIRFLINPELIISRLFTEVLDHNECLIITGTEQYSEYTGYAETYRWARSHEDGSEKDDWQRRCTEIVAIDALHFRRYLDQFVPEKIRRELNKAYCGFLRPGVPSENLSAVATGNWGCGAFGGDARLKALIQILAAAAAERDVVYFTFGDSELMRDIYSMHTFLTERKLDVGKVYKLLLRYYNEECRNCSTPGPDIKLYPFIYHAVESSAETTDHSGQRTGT

## C[C@H]1CN(c2cc(S(=O)(=O)NC3(C)CC3)cn3c(-c4nnc(C(F)F)s4)ncc23)C[C@H](C)N1 [WO2024074497, Example 1]
  IC50: 110 nM
